Measured values taken from PMC6968685 (Journal of Enzyme Inhibition and Medicinal Chemistry, 2020).
Where a name gives a salt, the structure may show the parent alone.

melting point	Compound
226 to 228 °C	COc1ccc2c(-c3ccc(CNCCCN4CCN(C)CC4)cc3)nc(-c3ccc(CNCCCN4CCN(C)CC4)cc3)cc2c1 (as salt: (cooh)2) [Compound 2l]
245 to 247 °C	COc1ccc2c(-c3ccc(CNCCCN4CCN(C)CC4)cc3)cc(-c3ccc(CNCCCN4CCN(C)CC4)cc3)nc2c1 (as salt: (cooh)2) [Compound 1p, 7-Methoxy-2,4-bis{4-[(3–(4-methylpiperazin-1-yl)propyl)aminomethyl]phenyl}quinoline]
237 to 239 °C	CN1CCN(CCCNCc2cccc(-c3cc(-c4cccc(CNCCCN5CCN(C)CC5)c4)c4ccccc4n3)c2)CC1 (as salt: (cooh)2) [Compound 1r, 2,4-Bis{3-[(3–(4-methylpiperazin-1-yl)propyl)aminomethyl]phenyl}quinoline]
208 to 210 °C	COc1ccc2c(-c3ccc(CNCCCCN(C)C)cc3)cc(-c3ccc(CNCCCCN(C)C)cc3)nc2c1 (as salt: (cooh)2) [Compound 1m, 7-Methoxy-2,4-bis{4-[(4-dimethylaminobutyl)aminomethyl]phenyl}quinoline]
235 to 237 °C	COc1ccc2nc(-c3ccc(CNCCCCN4CCN(C)CC4)cc3)cc(-c3ccc(CNCCCCN4CCN(C)CC4)cc3)c2c1 (as salt: (cooh)2) [Compound 1k, 6-Methoxy-2,4-bis{4-[(4–(4-methylpiperazin-1-yl)butyl)aminomethyl]phenyl}quinoline]
227 to 229 °C	COc1ccc2nc(-c3ccc(CNCCCCN(C)C)cc3)cc(-c3ccc(CNCCCCN(C)C)cc3)c2c1 (as salt: (cooh)2) [Compound 1i, 6-Methoxy-2,4-bis{4-[(4-dimethylaminobutyl)aminomethyl]phenyl}quinoline]
195 to 197 °C	COc1ccc2cc(-c3ccc(CNCCCN4CCN(C)CC4)cc3)nc(-c3ccc(CNCCCN4CCN(C)CC4)cc3)c2c1 (as salt: (cooh)2) [Compound 2h, 7-Methoxy-1,3-bis{4-[(3–(4-methylpiperazin-1-yl)propyl)aminomethyl]phenyl}isoquinoline]
234 to 236 °C	COc1ccc2c(-c3ccc(CNCCN(C)C)cc3)nc(-c3ccc(CNCCN(C)C)cc3)nc2c1 (as salt: (cooh)2) [Compound 3o, 7-Methoxy-2,4-bis{4-[(2-dimethylaminoethyl)aminomethyl]phenyl}quinazoline]
243 to 245 °C	CN(C)CCCNCc1cccc(-c2cc(-c3cccc(CNCCCN(C)C)c3)c3ccccc3n2)c1 (as salt: (cooh)2) [Compound 1q, 2,4-Bis{3-[(3-dimethylaminopropyl)aminomethyl]phenyl}quinoline]
223 to 225 °C	COc1ccc2c(-c3ccc(CNCCCN(C)C)cc3)nc(-c3ccc(CNCCCN(C)C)cc3)nc2c1 (as salt: (cooh)2) [Compound 3n, 7-Methoxy-2,4-bis{4-[(3-dimethylaminopropyl)aminomethyl]phenyl}quinazoline]
186 to 188 °C	c1cc(CNCCCN2CCOCC2)cc(-c2nc(-c3cccc(CNCCCN4CCOCC4)c3)c3ccccc3n2)c1 (as salt: (cooh)2) [Compound 3u, 2,4-Bis{3-[(3-morpholinopropyl)aminomethyl]phenyl}quinazoline]
> 260 °C	CN(C)CCCNCc1cccc(-c2nc(-c3cccc(CNCCCN(C)C)c3)c3ccccc3n2)c1 (as salt: (cooh)2) [Compound 3s, 2,4-Bis{3-[(3-dimethylaminopropyl)aminomethyl]phenyl}quinazoline]
203 to 205 °C	CN(C)CCNCc1ccc(-c2nc(-c3ccc(CNCCN(C)C)cc3)c3ccccc3n2)cc1 (as salt: (cooh)2) [Compound 3c, 2,4-Bis{4-[(2-dimethylaminoethyl)aminomethyl]phenyl}quinazoline]
237 to 239 °C	COc1ccc2c(-c3ccc(CNCCCCN4CCN(C)CC4)cc3)cc(-c3ccc(CNCCCCN4CCN(C)CC4)cc3)nc2c1 (as salt: (cooh)2) [Compound 1o, 7-Methoxy-2,4-bis{4-[(4–(4-methylpiperazin-1-yl)butyl)aminomethyl]phenyl}quinoline]
184 to 186 °C	CN(C)CCCCNCc1ccc(-c2cc3ccccc3c(-c3ccc(CNCCCCN(C)C)cc3)n2)cc1 (as salt: (cooh)2) [Compound 2a, 1,3-Bis{4-[(4-dimethylaminobutyl)aminomethyl]phenyl}isoquinoline]
229 to 231 °C	COc1ccc2nc(-c3ccc(CNCCN4CCN(C)CC4)cc3)nc(-c3ccc(CNCCN4CCN(C)CC4)cc3)c2c1 (as salt: (cooh)2) [Compound 3l, 6-Methoxy-2,4-bis{4-[(2–(4-methylpiperazin-1-yl)ethyl)aminomethyl]phenyl}quinazoline]
224 to 226 °C	COc1ccc2nc(-c3ccc(CNCCCN(C)C)cc3)cc(-c3ccc(CNCCCN(C)C)cc3)c2c1 (as salt: (cooh)2) [Compound 1j, 6-Methoxy-2,4-bis{4-[(3-dimethylaminopropyl)aminomethyl]phenyl}quinoline]
229 to 231 °C	CN1CCN(CCCNCc2ccc(-c3nc(-c4ccc(CNCCCN5CCN(C)CC5)cc4)c4ccccc4n3)cc2)CC1 (as salt: (cooh)2) [Compound 3e, 2,4-Bis{4-[(3–(4-methylpiperazin-1-yl)propyl)aminomethyl]phenyl}quinazoline]
153 to 155 °C	CN(C)CCCCNCc1ccc(-c2nc(-c3ccc(CNCCCCN(C)C)cc3)c3ccccc3n2)cc1 (as salt: (cooh)2) [Compound 3a, 2,4-Bis{4-[(4-dimethylaminobutyl)aminomethyl]phenyl}quinazoline]
225 to 227 °C	CN1CCN(CCCCNCc2ccc(-c3cc(-c4ccc(CNCCCCN5CCN(C)CC5)cc4)c4ccccc4n3)cc2)CC1 (as salt: (cooh)2) [Compound 1d, 2,4-Bis{4-[(4–(4-methylpiperazin-1-yl)butyl)aminomethyl]phenyl}quinoline]
216 to 218 °C	COc1ccc2c(-c3ccc(CNCCCCN4CCN(C)CC4)cc3)nc(-c3ccc(CNCCCCN4CCN(C)CC4)cc3)cc2c1 (as salt: (cooh)2) [Compound 2k, 6-Methoxy-1,3-bis{4-[(4–(4-methylpiperazin-1-yl)butyl)aminomethyl]phenyl}isoquinoline]
181 to 183 °C	CN1CCN(CCCCNCc2ccc(-c3cc4ccccc4c(-c4ccc(CNCCCCN5CCN(C)CC5)cc4)n3)cc2)CC1 (as salt: (cooh)2) [Compound 2c, 1,3-Bis{4-[(4–(4-methylpiperazin-1-yl)butyl)aminomethyl]phenyl}isoquinoline]

Compound	melting point
c1cc(CNCCN2CCOCC2)cc(-c2nc(-c3cccc(CNCCN4CCOCC4)c3)c3ccccc3n2)c1 (as salt: (cooh)2) [Compound 3v, 2,4-Bis{3-[(2-morpholinoethyl)aminomethyl]phenyl}quinazoline]	234 to 236 °C
COc1ccc2c(-c3ccc(CNCCCN(C)C)cc3)nc(-c3ccc(CNCCCN(C)C)cc3)cc2c1 (as salt: (cooh)2) [Compound 2j, 6-Methoxy-1,3-bis{4-[(3-dimethylaminopropyl)aminomethyl]phenyl}isoquinoline]	171 to 173 °C
COc1ccc2c(-c3ccc(CNCCCCN(C)C)cc3)nc(-c3ccc(CNCCCCN(C)C)cc3)cc2c1 (as salt: (cooh)2) [Compound 2i, 6-Methoxy-1,3-bis{4-[(4-dimethylaminobutyl)aminomethyl]phenyl}isoquinoline]	135 to 137 °C
CN(C)CCCNCc1ccc(-c2cc3ccccc3c(-c3ccc(CNCCCN(C)C)cc3)n2)cc1 (as salt: (cooh)2) [Compound 2b, 1,3-Bis{4-[(3-dimethylaminopropyl)aminomethyl]phenyl}isoquinoline]	186 to 188 °C
COc1ccc2c(-c3ccc(CNCCCCN(C)C)cc3)nc(-c3ccc(CNCCCCN(C)C)cc3)nc2c1 (as salt: (cooh)2) [Compound 3m, 7-Methoxy-2,4-bis{4-[(4-dimethylaminobutyl)aminomethyl]phenyl}quinazoline]	216 to 218 °C
COc1ccc2nc(-c3ccc(CNCCCN(C)C)cc3)nc(-c3ccc(CNCCCN(C)C)cc3)c2c1 (as salt: (cooh)2) [Compound 3i, 6-Methoxy-2,4-bis{4-[(3-dimethylaminopropyl)aminomethyl]phenyl}quinazoline]	243 to 245 °C
c1cc(CNCCN2CCOCC2)cc(-c2cc(-c3cccc(CNCCN4CCOCC4)c3)c3ccccc3n2)c1 (as salt: (cooh)2) [Compound 1t, 2,4-Bis{3-[(2-morpholinoethyl)aminomethyl]phenyl}quinoline]	225 to 227 °C
CN(C)CCNCc1ccc(-c2cc(-c3ccc(CNCCN(C)C)cc3)c3ccccc3n2)cc1 (as salt: (cooh)2) [Compound 1c, 2,4-Bis{4-[(2-dimethylaminoethyl)aminomethyl]phenyl}quinoline]	229 to 231 °C
c1cc(CNCCCN2CCOCC2)cc(-c2cc(-c3cccc(CNCCCN4CCOCC4)c3)c3ccccc3n2)c1 (as salt: (cooh)2) [Compound 1s, 2,4-Bis{3-[(3-morpholinopropyl)aminomethyl]phenyl}quinoline]	221 to 223 °C
CN(C)CCCNCc1ccc(-c2cc(-c3ccc(CNCCCN(C)C)cc3)c3ccccc3n2)cc1 (as salt: (cooh)2) [Compound 1b, 2,4-Bis{4-[(3-dimethylaminopropyl)aminomethyl]phenyl}quinoline]	244 to 246 °C
c1ccc2c(-c3ccc(CNCCN4CCOCC4)cc3)nc(-c3ccc(CNCCN4CCOCC4)cc3)nc2c1 (as salt: (cooh)2) [Compound 3g, 2,4-Bis{4-[(2-morpholinoethyl)aminomethyl]phenyl}quinazoline]	195 to 197 °C
CN(C)CCCNCc1ccc(-c2nc(-c3ccc(CNCCCN(C)C)cc3)c3ccccc3n2)cc1 (as salt: (cooh)2) [Compound 3b, 2,4-Bis{4-[(3-dimethylaminopropyl)aminomethyl]phenyl}quinazoline]	203 to 205 °C
CN1CCN(CCCNCc2ccc(-c3cc(-c4ccc(CNCCCN5CCN(C)CC5)cc4)c4ccccc4n3)cc2)CC1 (as salt: (cooh)2) [Compound 1e, 2,4-Bis{4-[(3–(4-methylpiperazin-1-yl)propyl)aminomethyl]phenyl}quinoline]	249 to 251 °C
